Source: patent publication US6528494B2 (priority 1996, dated 2003)

Assays:
[1] = test system: lung eosinophil accumulation; assay: Antigen-induced lung eosinophil accumulation in sensitised guinea pigs; assay type: in vivo, guinea pig; conditions: airstream concentration; inhaled route, 30 min aerosol before ovalbumin challenge; lavage 24 h after challenge
Protocol: (2) Antigen-induced lung eosinophil accumulation in sensitised guinea pigs.
Ovalbumin sensitised guinea pigs were dosed with mepyramine (1 mg/kg ip) to protect against anaphylactic bronchospasm. A compound of the invention was then given by the inhaled route (30 min breathing of an aerosol of the compound) immediately prior to ovalbumin challenge (30 min breathing of an aerosol generated from a 50 ug/ml solution of ovalbumin). Twenty four hours after challenge, the guinea pigs were killed and the lungs lavaged. Total and differential leucocyte counts were then obtained for the bronchoalveolar lavage fluid and the dose of test compound giving a 50% reduction in eosinophil accumulation (ED50) was determined (Sanjar et al. 1992).

[2] = target: adenosine 2a receptor (Homo sapiens, UniProt P29274); assay: Agonist activity against adenosine 2a receptor (CHO cells, cAMP/SPAP reporter); assay type: cell-based; conditions: CHO cells transfected with human receptor; basal cAMP via SPAP; mean of all the versions tested
Protocol: (§1) (1) Agonist activity against adenosine 2a, adenosine 1 and adenosine 3 receptor subtypes.
(§2) The effect of test compounds was determined by their effects on basal levels of cAMP (A2a) or on forskolin-enhanced cAMP (A1 and A3) as reflected by changes in levels of SPAP.

[3] = target: T1, adenosine 1 receptor (Homo sapiens, UniProt P30542); assay: Agonist activity against adenosine 1 receptor (CHO cells, forskolin-enhanced cAMP/SPAP reporter); assay type: cell-based; conditions: CHO cells transfected with human receptor; forskolin-enhanced cAMP via SPAP; mean of all the versions tested
T1 sequence (P30542 1-326): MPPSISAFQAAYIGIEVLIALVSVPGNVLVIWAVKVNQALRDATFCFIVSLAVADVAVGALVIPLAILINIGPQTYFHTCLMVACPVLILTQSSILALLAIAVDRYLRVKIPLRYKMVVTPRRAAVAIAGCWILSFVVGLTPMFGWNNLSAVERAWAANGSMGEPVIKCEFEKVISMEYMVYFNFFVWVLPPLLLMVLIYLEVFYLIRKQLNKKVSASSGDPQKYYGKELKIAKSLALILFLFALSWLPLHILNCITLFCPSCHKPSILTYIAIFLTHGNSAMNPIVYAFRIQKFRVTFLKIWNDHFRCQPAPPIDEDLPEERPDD
Protocol: as §1, §2

[4] = target: T2, adenosine 3 receptor (Homo sapiens, UniProt P0DMS8); assay: Agonist activity against adenosine 3 receptor (CHO cells, forskolin-enhanced cAMP/SPAP reporter); assay type: cell-based; conditions: CHO cells transfected with human receptor; forskolin-enhanced cAMP via SPAP; mean of all the versions tested
T2 sequence (P0DMS8 1-318): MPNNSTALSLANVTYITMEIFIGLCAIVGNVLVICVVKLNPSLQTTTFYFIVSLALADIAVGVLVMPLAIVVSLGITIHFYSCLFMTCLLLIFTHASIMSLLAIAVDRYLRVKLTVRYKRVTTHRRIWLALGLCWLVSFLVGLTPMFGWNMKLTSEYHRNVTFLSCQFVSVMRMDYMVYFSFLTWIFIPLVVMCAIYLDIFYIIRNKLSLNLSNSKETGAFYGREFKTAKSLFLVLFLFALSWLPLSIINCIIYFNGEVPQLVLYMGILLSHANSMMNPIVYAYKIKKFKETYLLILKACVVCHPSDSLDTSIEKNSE
Protocol: as §1, §2

Chain of adenosine 2a receptor (P29274 whole entry): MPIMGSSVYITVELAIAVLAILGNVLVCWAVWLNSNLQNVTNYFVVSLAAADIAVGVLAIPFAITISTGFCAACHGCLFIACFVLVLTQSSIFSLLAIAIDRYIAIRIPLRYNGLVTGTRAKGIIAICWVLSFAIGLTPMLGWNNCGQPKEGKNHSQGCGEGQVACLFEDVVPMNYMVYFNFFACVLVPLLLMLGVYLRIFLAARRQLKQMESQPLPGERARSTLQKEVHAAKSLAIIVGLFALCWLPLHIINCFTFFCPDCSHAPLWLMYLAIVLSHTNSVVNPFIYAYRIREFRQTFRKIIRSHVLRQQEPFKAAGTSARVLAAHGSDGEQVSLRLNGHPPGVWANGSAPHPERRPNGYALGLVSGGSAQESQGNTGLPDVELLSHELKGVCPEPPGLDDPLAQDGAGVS

| A2a EC50 as a ratio of that of NECA [2] | A1 EC50 as a ratio of that of NECA [3] | A3 EC50 as a ratio of that of NECA [4] | Molecule | ED50 (50% reduction in eosinophil accumulation) [1] [ng/mL] |
| --- | --- | --- | --- | --- |
|  |  |  | CCn1nnc([C@H]2O[C@@H](n3cnc4c(NCC(c5ccccc5)c5ccccc5)nc(N[C@H]5CC[C@H](N)CC5)nc43)[C@H](O)[C@@H]2O)n1.Cl.Cl (relative stereo) [Example 1a, rel-(2R,3R,4S,5R)-2-[2-(trans-4-Amino-cyclohexylamino)-6-(2,2-diphenyl-ethylamino)-purin-9-yl]-5-(2-ethyl-2H-tetrazol-5-yl)-tetrahydro-furan-3,4-diol Dihydrochloride] | 6 |
|  |  |  | CCn1nnc([C@H]2O[C@@H](n3cnc4c(N)nc(N[C@H](CO)Cc5ccccc5)nc43)[C@H](O)[C@@H]2O)n1.Cl [Example 11a, (2R,3R,4S,5R)-2-[6-Amino-2-(1S-hydroxymethyl-2-phenyl-ethylamino)-purin-9-yl]-5-(2-ethyl-2H-tetrazol-5-yl)-tetrahydro-furan-3,4-diol Hydrochloride] | 6 |
| 1.53 | 48.60 | >158 | (2R,3R,4S,5R)-2-[2-(1-Benzyl-pyrrolidin-3-ylamino)-6-cyclopentylamino-purin-9-yl]-5-(2-ethyl-2H-tetrazol-5-yl)-tetrahydro-furan-3,4-diol bis(Formate) [Example 66] |  |
| 1.24 | 253.70 | >192 | (2R,3R,4S,5R)-2-[2-(trans-4-Amino-cyclohexylamino)-6-cyclopentylamino-purin-9-yl]-5-(2-methyl-2H-tetrazol-5-yl)-tetrahydro-furan-3,4-diol Diformate [Example 92] |  |
| 0.36 | >4798 | >157 | (2R,3R,4S,5R)-2-[6-(1-Ethyl-propylamino)-2-(2-piperidin-1-yl-ethylamino)-purin-9-yl]-5-(2-methyl-2H-tetrazol-5-yl)-tetrahydro-furan-3,4-diol Diformate [Example 24] |  |
| 2.19 | 472.30 | >315 | (2R,3R,4S,5R)-2-[6-Cyclopentylamino-2-(2-pyrrolidin-1-yl-ethylamino)-purin-9-yl]-5-(2-methyl-2H-tetrazol-5-yl)-tetrahydro-furan-3,4-diol bis(Formate) [Example 112] |  |
| 4.00 | 31.00 | >181 | (2R,3S,4R,5R)-2-(2-Ethyl-2H-tetrazol-5-yl)-5-[6-(1S-hydroxymethyl-2-ethylamino)-2-(2-morpholin-4-yl-ethylamino)-purin-9-yl]-tetrahydro-furan-3,4-diol Formate [Example 78] |  |

| Molecule | A2a EC50 as a ratio of that of NECA [2] | A1 EC50 as a ratio of that of NECA [3] | A3 EC50 as a ratio of that of NECA [4] | ED50 (50% reduction in eosinophil accumulation) [1] [ng/mL] |
| --- | --- | --- | --- | --- |
| CCn1nnc([C@H]2O[C@@H](n3cnc4c(NCC(c5ccccc5)c5ccccc5)nc(NC5CCS(=O)(=O)CC5)nc43)[C@H](O)[C@@H]2O)n1.O=C(O)C(F)(F)F [Example 115, (2R,3R,4S,5R)-2-[6-(2,2-Diphenyl-ethylamino)-2-(1,1--dioxo-hexahydro-1.lamda.6-thiopyran-4-ylamino)-purin-9-yl]-5-(2-ethyl-2H-tetrazol-5-yl)-tetrahydro-furan-3,4-diol Trifluoroacetate] | 0.36 | 37.7 | >297.0 |  |
